The text below walks through data of publication PMC4503722, “Novel Phenotypic Outcomes Identified for a Public Collection of Approved Drugs from a Publicly Accessible Panel of Assays” (PLoS ONE, 2015).

Read-outs that look alike come from different tables or passages of the source.

For orientation: IC50 means the midpoint of a concentration-inhibition curve.

Some test systems named below: SW480; Colo320; SNU-C1; HT-29; HCT116; RKO; DLD-1.
Experiment in all cases: cells
What all share (assay type): cell-based

Assay [1] deals with HCT116 cells treated with a GSK3β inhibitor. As to conditions: for IC50/EC50, GSK3b inh pretreated_Viability ATP HCT116 (assay number 26): GSK3b inh pretreated.
Setting [2] is: assay number 26, GSK3b inhibitor pretreated.

Take `CN1CCC(=C2c3ccccc3C=Cc3ccccc32)CC1` [NCGC00015252-12]: the “Basal_Viability ATP SW480 IC50/EC50” value in the assay with SW480 (assay number 24, basal) is 5.9167 µM. Besides, the “GSK3b inh pretreated_Viability ATP HCT116 IC50/EC50” value in assay [1] (setting [2]) is above 20 µM. Besides, the “Basal_Viability ATP Colo 320 IC50/EC50” value with Colo320 (assay number 27, basal) is above 20 µM. In addition, in the assay on SNU-C1 (assay number 30, basal), the “Basal_Viability ATP SNU-C1 IC50/EC50” value is recorded as 10.7827 µM. Besides, in the assay with HT-29 (assay number 28, basal), the “Basal_Viability ATP HT-29 IC50/EC50” value is listed as above 20 µM. Moreover, the “Basal_Viability ATP HCT116 IC50/EC50” value with HCT116 (assay number 25, basal) is above 20 µM. In addition, the “Basal_Viability ATP RKO IC50/EC50” value with RKO (assay number 29, basal) is given as 11.2853 µM. Further, the “Basal_Viability ATP DLD-1 IC50/EC50” value in the assay with DLD-1 (assay number 23, basal) is above 20 µM.
`N#CC(C#N)=Cc1ccc(O)c(O)c1` [NCGC00016043-08]: the “IC50/EC50, Basal_Viability ATP SW480 (assay number 24)” value in the assay with SW480 (basal) is recorded as above 20 µM. The “IC50/EC50, GSK3b inh pretreated_Viability ATP HCT116 (assay number 26)” value in assay [1] is recorded as above 20 µM. In addition, in the assay on Colo320 (basal), the “IC50/EC50, Basal_Viability ATP Colo 320 (assay number 27)” value is reported as 6.7406 µM. Besides, the “IC50/EC50, Basal_Viability ATP SNU-C1 (assay number 30)” value in the assay with SNU-C1 (basal) is recorded as above 20 µM. In addition, the “IC50/EC50, Basal_Viability ATP HT-29 (assay number 28)” value in the assay with HT-29 (basal) is recorded as above 20 µM. For the same compound, the “IC50/EC50, Basal_Viability ATP HCT116 (assay number 25)” value in the assay with HCT116 (basal) is given as above 20 µM. Further, the “IC50/EC50, Basal_Viability ATP RKO (assay number 29)” value with RKO (basal) turned out to be 3.7756 µM. Moreover, the “IC50/EC50, Basal_Viability ATP DLD-1 (assay number 23)” value in the assay with DLD-1 (basal) is on record as above 20 µM.
Take `Cc1nnc(NS(=O)(=O)c2ccc(N)cc2)s1` [NCGC00016407-08]: the 50% inhibitory concentration (IC50) with SW480 (assay number 24, basal, read-out: Basal_Viability ATP SW480 summarized IC50) is above 20 µM; in assay [1] (assay number 26, GSK3b inhibitor pretreated, read-out: GSK3b inh pretreated_Viability ATP HCT116 summarized IC50), above 20 µM; in the assay on Colo320 (assay number 27, basal, read-out: Basal_Viability ATP Colo 320 summarized IC50), above 20 µM; with SNU-C1 (assay number 30, basal, read-out: Basal_Viability ATP SNU-C1 summarized IC50), above 20 µM; with HT-29 (assay number 28, basal, read-out: Basal_Viability ATP HT-29 summarized IC50), above 20 µM; in the assay with HCT116 (assay number 25, basal, read-out: Basal_Viability ATP HCT116 summarized IC50), above 20 µM. Further, the IC50 was above 20 µM in the assay with RKO (assay number 29, basal, read-out: Basal_Viability ATP RKO summarized IC50) and above 20 µM with DLD-1 (assay number 23, basal, read-out: Basal_Viability ATP DLD-1 summarized IC50).
For `C1CCC(C(CC2CCCCN2)C2CCCCC2)CC1.O=C(O)/C=C\C(=O)O` (stereo not shown) [NCGC00018261-06], in the assay with SW480, the “Basal_Viability ATP SW480 IC50/EC50” value is given as 5.7603 µM. In assay [1], the “GSK3b inh pretreated_Viability ATP HCT116 IC50/EC50” value stood at 7.4207 µM. Further, the “Basal_Viability ATP Colo 320 IC50/EC50” value in the assay with Colo320 stood at 8.8632 µM. Moreover, in the assay with SNU-C1, the “Basal_Viability ATP SNU-C1 IC50/EC50” value is recorded as 2.48 µM. For the same compound, the “Basal_Viability ATP HT-29 IC50/EC50” value in the assay on HT-29 is 6.8652 µM. The “Basal_Viability ATP HCT116 IC50/EC50” value in the assay with HCT116 is above 20 µM. Also, the “Basal_Viability ATP RKO IC50/EC50” value with RKO worked out at 7.8491 µM. Further, the “Basal_Viability ATP DLD-1 IC50/EC50” value with DLD-1 is given as above 20 µM.
As to `CCCCCCCCCCCCCCCCOP(=O)([O-])OCC[N+](C)(C)C` [NCGC00095169-05], in the assay on SW480 (assay number 24, basal), the “Basal_Viability ATP SW480 IC50/EC50” value is 0.4782 µM. Further, the “GSK3b inh pretreated_Viability ATP HCT116 IC50/EC50” value in assay [1] (setting [2]) came to 1.476 µM. In the assay with Colo320 (assay number 27, basal), the “Basal_Viability ATP Colo 320 IC50/EC50” value amounted to 1.49 µM. In addition, in the assay with SNU-C1 (assay number 30, basal), the “Basal_Viability ATP SNU-C1 IC50/EC50” value is on record as 0.9649 µM. Besides, the “Basal_Viability ATP HT-29 IC50/EC50” value in the assay on HT-29 (assay number 28, basal) came out at 1.955 µM. The “Basal_Viability ATP HCT116 IC50/EC50” value in the assay on HCT116 (assay number 25, basal) was 3.393 µM. In addition, the “Basal_Viability ATP RKO IC50/EC50” value with RKO (assay number 29, basal) is given as 0.4372 µM. For the same compound, in the assay with DLD-1 (assay number 23, basal), the “Basal_Viability ATP DLD-1 IC50/EC50” value is on record as 1.23 µM.
As to `Nc1ccc(C(=O)Nc2ccccc2N)cc1` [NCGC00160373-02], the “IC50/EC50, Basal_Viability ATP SW480 (assay number 24)” value with SW480 (basal) is above 20 µM. For the same compound, the “IC50/EC50, GSK3b inh pretreated_Viability ATP HCT116 (assay number 26)” value in assay [1] amounted to 12.8536 µM. Further, the “IC50/EC50, Basal_Viability ATP Colo 320 (assay number 27)” value with Colo320 (basal) was above 20 µM. The “IC50/EC50, Basal_Viability ATP SNU-C1 (assay number 30)” value with SNU-C1 (basal) is listed as above 20 µM. Also, the “IC50/EC50, Basal_Viability ATP HT-29 (assay number 28)” value with HT-29 (basal) is recorded as above 20 µM. In addition, the “IC50/EC50, Basal_Viability ATP HCT116 (assay number 25)” value with HCT116 (basal) is given as above 6.6667 µM. The “IC50/EC50, Basal_Viability ATP RKO (assay number 29)” value with RKO (basal) is listed as above 20 µM. For the same compound, in the assay on DLD-1 (basal), the “IC50/EC50, Basal_Viability ATP DLD-1 (assay number 23)” value is listed as above 20 µM.
Consider `C=Cc1c(C)c2cc3nc(cc4[nH]c(cc5nc(cc1[nH]2)C(C)=C5CCC(=O)O)c(CCC(=O)OC)c4C)[C@@]1(C)C3=CC=C(C(=O)OC)[C@@H]1C(=O)OC` [NCGC00344558-01], for which the “Basal_Viability ATP SW480 IC50/EC50” value in the assay on SW480 (assay number 24, basal) was above 6.667 µM. Also, the “GSK3b inh pretreated_Viability ATP HCT116 IC50/EC50” value in assay [1] (setting [2]) came to 4.2601 µM. Moreover, the “Basal_Viability ATP Colo 320 IC50/EC50” value in the assay on Colo320 (assay number 27, basal) came to 9.6205 µM. Besides, in the assay on SNU-C1 (assay number 30, basal), the “Basal_Viability ATP SNU-C1 IC50/EC50” value amounted to 5.854 µM. For the same compound, the “Basal_Viability ATP HT-29 IC50/EC50” value with HT-29 (assay number 28, basal) amounted to 3.9401 µM. Further, the “Basal_Viability ATP HCT116 IC50/EC50” value in the assay on HCT116 (assay number 25, basal) was 5.6514 µM. The “Basal_Viability ATP RKO IC50/EC50” value in the assay on RKO (assay number 29, basal) is 3.5296 µM.
